# Test system: Dihydrofolate reductase (Enterococcus faecium)
row,SMILES,Delta G
1,Nc1nc(S)c2cc(S(=O)(=O)c3ccc4ccccc4c3)ccc2n1,-8 kcal
2,CCOC(=O)c1ccc(CNc2ccc3nc(N)nc(O)c3c2)cc1,-8.6 kcal
3,Nc1nc(N)c2c(Sc3ccc(Cl)c(Cl)c3)cccc2n1,-9.9 kcal
4,Nc1nc(O)c2cc(Sc3ccc(Cl)c(Cl)c3)ccc2n1,-9.1 kcal
5,Nc1nc(O)c2cc(CNc3ccc(C(=O)O)cc3)ccc2n1,-8.8 kcal
6,Nc1nc(O)c2cc([S+]([O-])c3ccc4ccccc4c3)ccc2n1 (stereo not drawn),-8.2 kcal
7,Nc1nc(N)c2c(Sc3ccc4ccccc4c3)cccc2n1,-10.9 kcal
8,Nc1nc(N)c2cc(CNc3ccc(C(=O)O)cc3)ccc2n1,-13 kcal
9,Cc1c(NCc2ccc(C(=O)O)cc2)ccc2nc(N)nc(O)c12,-6.5 kcal
10,Nc1nc(N)c2c([S+]([O-])c3ccc(Cl)c(Cl)c3)cccc2n1 (stereo not drawn),-7.3 kcal
11,Nc1nc(O)c2cc(NCc3ccc(C(=O)O)cc3)ccc2n1,-7.2 kcal
12,Nc1nc(N)c2c(CCc3ccc4ccccc4c3)cccc2n1,-11.9 kcal
13,CCOC(=O)c1ccc(CNc2ccc3nc(N)nc(N)c3c2Cl)cc1,-12.2 kcal
14,Nc1ncnc2ccc(S(=O)(=O)c3ccc4ccccc4c3)cc12,-5.8 kcal
15,Nc1nc(S)nc2ccc(Sc3ccc4ccccc4c3)cc12,-7.4 kcal
16,Nc1nc(O)c2c(S(=O)(=O)c3ccc4ccccc4c3)cccc2n1,-9 kcal
17,Nc1nc(O)c2c(Sc3ccc4ccccc4c3)cccc2n1,-7.4 kcal
18,CCCCOC(=O)c1ccc(NCc2ccc3nc(N)nc(N)c3c2)cc1,-11.2 kcal
19,Nc1nc(N)c2cc(S(=O)(=O)c3ccc(Cl)c(Cl)c3)ccc2n1,-13.4 kcal
20,Nc1ncnc2ccc(Sc3ccc4ccccc4c3)cc12,-6.5 kcal
21,Nc1ncnc2ccc([S+]([O-])c3ccc4ccccc4c3)cc12 (stereo not drawn),-7.2 kcal
22,Nc1nc(O)c2cc(S(=O)(=O)c3ccc4ccccc4c3)ccc2n1,-9.6 kcal
23,O=c1[nH]c(=S)c2cc(Sc3ccc4ccccc4c3)ccc2[nH]1,-6.9 kcal
24,Nc1nc(N)c2cc(Sc3ccc(Cl)c(Cl)c3)ccc2n1,-12.2 kcal
25,Nc1nc(O)nc2ccc(Sc3ccc4ccccc4c3)cc12,-6.9 kcal
26,Nc1nc(N)c2c(/C=C\c3ccc4ccccc4c3)cccc2n1,-11.1 kcal
27,Nc1nc(N)c2c(Cl)c(CNc3ccc(C(=O)O)cc3)ccc2n1,-12.3 kcal

row,SMILES,Delta G
1,CCOC(=O)c1ccc(NCc2ccc3nc(N)nc(N)c3c2C)cc1,-12.3 kcal
2,Nc1nc(N)c2c(S(=O)(=O)c3ccc4ccccc4c3)cccc2n1,-6.5 kcal
3,Nc1nc(N)c2c([S+]([O-])c3ccc4ccccc4c3)cccc2n1 (stereo not drawn),-6.9 kcal
4,CCOC(=O)c1ccc(CNc2ccc3nc(N)nc(O)c3c2Cl)cc1,-9.3 kcal
5,CCCCOC(=O)c1ccc(NCc2ccc3nc(N)nc(N)c3c2C)cc1,-12.1 kcal
6,O=c1[nH]c(=O)c2cc(Sc3ccc4ccccc4c3)ccc2[nH]1,-6.9 kcal
7,Nc1nc(O)c2cc(Sc3ccc4ccccc4c3)ccc2n1,-10.2 kcal
8,Sc1nc(S)c2cc(Sc3ccc4ccccc4c3)ccc2n1,-6 kcal
9,Nc1nc(N)c2c(CSc3ccc(Cl)cc3)cccc2n1,-10.9 kcal
10,Nc1nc(N)c2c(S(=O)(=O)c3ccc(Cl)c(Cl)c3)cccc2n1,-9 kcal
11,Nc1nc(N)c2c(/C=C/c3ccc4ccccc4c3)cccc2n1,-10.7 kcal
12,Nc1nc(N)c2cc(Sc3cccc(C(F)(F)F)c3)ccc2n1,-13.4 kcal
13,Nc1nc(O)c2cc(S(=O)(=O)c3ccc(Cl)c(Cl)c3)ccc2n1,-8.2 kcal
14,Oc1nc(S)nc2ccc(Sc3ccc4ccccc4c3)cc12,-6.2 kcal
15,Nc1nc(S)c2cc(Sc3ccc4ccccc4c3)ccc2n1,-9.3 kcal
16,Nc1nc(N)c2cc(S(=O)(=O)c3ccc4ccccc4c3)ccc2n1,-12.4 kcal
17,CCOC(=O)c1ccc(CNc2ccc3nc(N)nc(N)c3c2C)cc1,-13.1 kcal
18,CCCCOC(=O)c1ccc(NCc2ccc3nc(N)nc(N)c3c2Cl)cc1,-11.4 kcal
19,CCOC(=O)c1ccc(CNc2ccc3nc(N)nc(O)c3c2C)cc1,-7.1 kcal
20,CCOC(=O)c1ccc(NCc2ccc3nc(N)nc(N)c3c2)cc1,-11.4 kcal
21,Cc1c(CNc2ccc(C(=O)NC(CC(=O)O)C(=O)O)cc2)ccc2nc(N)nc(N)c12 (stereo not drawn),-12.7 kcal
22,CCOC(=O)c1ccc(NCc2ccc3nc(N)nc(O)c3c2)cc1,-10.6 kcal
23,CCOC(=O)c1ccc(CNc2ccc3nc(N)nc(N)c3c2)cc1,-11 kcal
24,Nc1nc(N)c2cc([S+]([O-])c3ccc4ccccc4c3)ccc2n1 (stereo not drawn),-12.8 kcal
25,CCOC(=O)c1ccc(NCc2ccc3nc(N)nc(N)c3c2Cl)cc1,-12.8 kcal
26,Cc1c(CNc2ccc(C(=O)O)cc2)ccc2nc(N)nc(N)c12,-11.8 kcal

# Reference: ChEMBL document CHEMBL1121631, “Quantitative structure-activity relationships by distance geometry: systematic analysis of dihydrofolate reductase inhibitors” (J Med Chem, 1980)
